One compound from US8198273B2, “Compounds and methods for kinase modulation, and indications therefor” (Plexxikon Inc., priority 2009, dated 2012) can be followed below.

One series has as its target CYP3A4(BQ) (Homo sapiens, UniProt P08684). In words: CYP3A4(BQ) inhibition (fluorescent substrate). Type of series: in vitro ADME. The note with it: read-out: Cyp IC50 3A4(BQ). On the procedure:
(§1) CYP (Cytochrome P450) enzymes are the major drug metabolizing enzymes present in the liver. The inhibition of CYP enzyme activity (IC50) for each of CYP1A2, CYP2C19, CYP2C9, CYP2D6, CYP3A4(BFC) and CYP3A4(BQ) is determined for compounds, where inhibition of metabolism of a known substrate leads to a decrease in the fluorescence of the metabolized product. The fluorescence of the product is monitored as a function of compound concentration. Compounds are dissolved in dimethyl sulfoxide to a concentration of 100 mM. These are diluted 1 μL into 82 μL of acetonitrile. […] These are then serially diluted 1:1 (160 μL to 160 μL co-factor mix) for a total of 10 points. A 10 μL aliquot of this final mixture is dispensed into 384 well assay plates and incubated for 10 minutes at 37° C. […] Assay plates are incubated at 37° C. […] The signal versus compound concentration is used to determine the IC50. The enzymes and substrates for this assay are obtained from BD Biosciences.

The test system of series [1] is COLO205 colon adenocarcinoma cells (B-Raf V600E). In words: COLO205 cell growth inhibition (ATPlite). The note with it: Homo sapiens, COLO 205, 72 h; COLO205, 3 days incubation. The class given is cell-based. How it is done:
(§2) Compounds are assessed in a variety of cell based assays. For example human cell lines with B-Raf V600E mutation (A375 melanoma, SKMEL3 melanoma, and COL0205 colon adenocarcinoma), as well as tumorigenic cell lines with wild-type B-RAF (SW620 colon adenocarcinoma) or with Ras mutations (SKMEL2 melanoma and IPC298 melanoma). Similar assays may be used to assess additional tumorigenic cell lines with Ras mutations, including, but not limited to, M202, M207, M243, M244, M296, S117, HCT116, HCT15, DLD1, MiaPaCa, A549, NCI-H23, NCI-H460, HOP62, MDA-MB231, Hs-578T, HL60, MOLT-4, and CCRF-CEM.
(§3) On day 1, cells are counted, then centrifuged in a conical tube for 5 minutes at 1000 rpm. The supernatant is removed and cells are re-suspended as follows: • SW620 (ATCC catalog #CCL-27): resuspend in Leibovitz's L-15 medium, 2 mM L-glutamine, 10% fetal bovine serum to 6×10^4 cells/mL. • A375 (ATCC catalog #CRL-1619): resuspend in Dulbecco's modified Eagle's medium, 4 mM L-glutamine, 4.5 g/L D-glucose, 10% fetal bovine serum to 6×10^4 cells/mL. • COL0205 (ATCC catalog #CCL-222): resuspend in RPMI 1640, 2 mM L-glutamine, 1.5 g/L sodium bicarbonate, 4.5 g/L D-glucose, 10 mM HEPES, 1.0 mM sodium pyruvate, 10% fetal bovine serum to 6×10^4 cells/mL. • SKMEL2 (ATCC catalog #HTB-68): resuspend in Minimum Eagle essential medium, 2 mM L-glutamine, 1.5 g/L sodium bicarbonate, 0.1 mM non-essential amino acids, 1.0 mM sodium pyruvate, 10% fetal bovine serum to 6×10^4 cells/mL. • SKMEL3 (ATCC catalog #HTB-69): resuspend in McCoy's 5A medium, 1.5 mM L-glutamine, 15% fetal bovine serum to 6×10^4 cells/mL. • IPC298 (DSMZ catalog #ACC 251): resuspend in RPMI 1640, 2 mM L-glutamine, 10% fetal bovine serum to 6×10^4 cells/mL.
(§4) The cells are plated, 50 μL in each well of a 96-well dish (Corning 3610) and incubated at 37° C. in 5% CO2 overnight, cells plated to a final concentration of cells as follows:
(§5) On day 2, compound at a maximum concentration of 5 mM is serially diluted 1:3 for a total of 8 point titration with DMSO as a control. A 1 μL aliquot of each dilution point and control is added to 249 μL growth media and 50 μL is added to a well containing cells, providing 10 μM compound at the maximum concentration point. The cells are incubated for 3 days at 37° C. in 5% CO2.
(§6) On day 5, ATPlite 1 step Luminescence Assay System (Perkin Elmer #6016739) is brought to room temperature along with the cell cultures. ATPlite is added 25 μL to each well, shake for 2 minutes, and the cells are incubated at room temperature for 10 minutes, then luminescence is read on Safire reader. The measured luminescence correlates directly with cell number, such that the reading as a function of compound concentration is used to determine the IC50 value.
(§7) It is understood that the results of these assays may vary as assay conditions are varied. Inhibition levels determined under the conditions described herein represent a relative activity for the compounds tested under the specific conditions employed. The cell based assays are likely to show variability due to the complexity of the system and the sensitivity thereof to any changes in the assay conditions. […] Results for compounds that are tested and show substantially no inhibition below the highest tested concentration are represented as “-” in the tables below. In some instances, the compounds were not tested in all of the assays, or assay results were not valid, as indicated by NA in the tables below.

In the next series the test system is Colo205 xenograft. Description: Colo205 xenograft mouse model, tumor growth inhibition. The note with it: COLO 205, 336 h, female nu/nu mice, 10 mg/kg daily for fourteen days. Type of series: in vivo. On the procedure: Tumor growth is monitored to approximately 100 mg size, and mice are distributed to treatment groups such that the mean tumor burden within a group is within 10% of the overall mean tumor burden. […] Mice are observed daily, with tumor burden and body weights measured twice a week. Animals with tumor burden above 1500-2000 mg and any animals in moribund condition are euthanized. The average tumor growth of vehicle control group mice is compared to the average tumor growth of the test compound mice. Percent tumor growth inhibition is calculated as 100×[(tumor growth control-tumor growth test compound)/tumor growth control].

Another series concerns the target CYP3A4(BFC) (Homo sapiens, UniProt P08684). In words: CYP3A4(BFC) inhibition (fluorescent substrate). The class given is in vitro ADME. Particulars: read-out: Cyp IC50 3A4(BFC). How it is done: as §1
For series [2], the system named is SKMEL2 melanoma cells (Ras mutation). In words: SKMEL2 cell growth inhibition (ATPlite). Particulars: Homo sapiens, SK-MEL-2, 72 h; SKMEL2, 3 days incubation. The class given is cell-based. How it is done:
as §2, §3, §4
SKMEL2: 2,000 cells per well.
as §5, §6, §7

Series [3] concerns SW620 colon adenocarcinoma cells (wild-type B-RAF). In words: SW620 cell growth inhibition (ATPlite). Type of series: cell-based. The note with it: Homo sapiens, SW-620, 72 h; SW620, 3 days incubation. How it is done:
as §2, §3, §4, §5, §6, §7

Series [4] can be described thus: Relative solubility by turbidity in aqueous buffers of varying pH. Type of series: physicochemical. How it is done:
As an indication of relative solubility, the turbidity of compounds in aqueous solutions is assessed. To assess possible compound properties in different physiological compartments, such as stomach, intestine, and blood, a series of aqueous buffers with varying pH is used. Thus each compound is diluted into four different physiologically relevant buffers and solution turbidity is measured by spectrophotometry.
Compounds are dissolved at a concentration of 25 mM in dimethyl sulfoxide, then serially diluted 1:1 into a 96 well plate, diluting 10 times in pure dimethyl sulfoxide, with the final well of each row a dimethyl sulfoxide blank. In an assay plate, 99 μL of appropriate buffer is added to each well, and 1 μL of each sample dilution is added to the buffer, achieving a range of final total concentrations in aqueous solutions having different pH. The buffers used are Simulated Gastric Fluid (SGF-pH 1.5) 0.5M NaCl, pH 1.5; Simulated Intestinal fluid (SIF-pH 4.5 and pH 6.8) 0.05M NaH2PO4, pH 4.5 and 6.8; and Hepes Buffer (HEPES-pH 7.4) 10 mM HEPES, 150 mM NaCl, pH 7.4. Control compounds pyrene, estriol and propranolol HCl are also assessed. Plates are spun and then mixed for 1 minute, and the absorbance is read using a Tecan Safire II to read wavelengths in the visible range (490, 535, and 650 nm) at four locations per well, reflecting the degree of turbidity present. The average optical density for each wavelength in each well is graphed vs. compound concentration, and the concentration at which the curve crosses a threshold O.D. of 0.01 for each wavelength is reported as the endpoint turbidity assay result. The average of the three wavelengths is used to compare turbidity of compounds. Compounds are considered to have low solubility if the threshold concentration is <31.3 04, moderate solubility if the threshold concentration is 31.3 μM to 250 μM, and high solubility if the threshold concentration is >250 μM.

Series [5] has as its system A375 melanoma cells (B-Raf V600E). Description: A375 cell growth inhibition (ATPlite). Type of series: cell-based. Particulars: Homo sapiens, A-375, 72 h; A375, 3 days incubation. On the procedure: as §2, §3, §4, §5, §6, §7

Some results are limits rather than exact numbers.

CYP3A4(BFC), sequence (P08684 whole entry): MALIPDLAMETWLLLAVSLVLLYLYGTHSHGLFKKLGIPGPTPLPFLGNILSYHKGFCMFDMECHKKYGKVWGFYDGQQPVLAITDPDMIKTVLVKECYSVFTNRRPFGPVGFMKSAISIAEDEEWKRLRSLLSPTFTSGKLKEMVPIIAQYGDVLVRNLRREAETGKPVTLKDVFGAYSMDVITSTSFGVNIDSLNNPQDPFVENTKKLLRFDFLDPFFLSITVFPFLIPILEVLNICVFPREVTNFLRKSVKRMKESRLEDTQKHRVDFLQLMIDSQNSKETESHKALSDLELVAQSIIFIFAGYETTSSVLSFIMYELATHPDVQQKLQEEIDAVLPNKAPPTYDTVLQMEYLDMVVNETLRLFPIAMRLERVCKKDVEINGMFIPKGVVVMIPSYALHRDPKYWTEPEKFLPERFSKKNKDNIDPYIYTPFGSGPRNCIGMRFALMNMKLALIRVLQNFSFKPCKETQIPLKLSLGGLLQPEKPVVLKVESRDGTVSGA
CYP3A4(BQ), sequence (P08684 whole entry): as above

In the case of `O=C(c1c(F)ccc(NS(=O)(=O)c2cccnc2)c1F)c1c[nH]c2ncc(Cl)cc12` [P-2071, Pyridine-3-sulfonic acid [3-(5-chloro-1H-pyrrolo[2,3-b]pyridine-3-carbonyl)-2,4-difluoro-phenyl]-amide], the IC50 is < 5 µM on CYP3A4(BQ); < 1 µM in series [1]; < 5 µM on CYP3A4(BFC); > 10 µM in series [2]; > 10 µM in series [3]; < 1 µM in series [5]. The same compound came in with an inhibition in vivo at 10 mg/kg in the series with Colo205 xenograft of 59%. The “turbidity threshold (L, M, H) 7.4” value in series [4] (HEPES pH 7.4) is listed as “M (moderate solubility if the threshold concentration is 31.3 μM to 250 μM)”. Further, in series [4] (SIF pH 4.5), the “turbidity threshold (L, M, H) 4.5” value is given as “M (moderate solubility if the threshold concentration is 31.3 μM to 250 μM)”. In addition, the “turbidity threshold (L, M, H) 6.8” value in series [4] (SIF pH 6.8) is “M (moderate solubility if the threshold concentration is 31.3 μM to 250 μM)”. In series [4] (buffer pH 1.4 (SGF)), the “turbidity threshold (L, M, H) 1.4” value was “M (moderate solubility if the threshold concentration is 31.3 μM to 250 μM)”.
